Source: US5888744A, “Detection and separation of aminoglycosides by binding to immobilized lysozyme or α-lactalbumin” (The United States of America, as represented by the …, priority 1995, dated 1999)
Where two headings read alike, the source gives them in different places. Blank lines part the entries; values can stand above or below the compound they belong to.

Assays:
immobilized rat albumin = immobilized rat albumin (Rattus norvegicus, UniProt P02770); assay: binding by immobilized rat albumin (preliminary results)
immobilized lysozyme [1] = target: T1, immobilized lysozyme (Gallus gallus, UniProt P00698); assay: affinity chromatography on immobilized lysozyme (agarose gel), fluorescamine detection; format: binding; settings: in adulterated biological fluids, without prior deionization
[2] = target: T2, immobilized α-lactalbumin (Bos taurus, UniProt P00711); assay: affinity chromatography on immobilized α-lactalbumin (agarose gel), fluorescamine detection; format: binding
T2 sequence (P00711 20-142): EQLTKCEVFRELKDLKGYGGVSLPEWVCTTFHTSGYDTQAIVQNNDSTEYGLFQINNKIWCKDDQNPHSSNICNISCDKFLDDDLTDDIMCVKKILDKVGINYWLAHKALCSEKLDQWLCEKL
Experimental: This example illustrates an affinity chromatography method for the removal of aminoglycosides from biological fluids either for purification of the aminoglycoside or purification of the fluid by removal of aminoglycosides. Lysozyme and α-lactalbumin are immobilized using Affi-Gel 10® (N-hydroxysuccinimide ester agarose gel). A 1 ml aliquot of Affi-Gel 10® is transferred to a 5 ml disposable column, the solvent is drained, and the gel is washed with 3 bed volumes of cold (4° C.) distilled, deionized water. A 2 ml aliquot of lysozyme, 25 mg/ml in 0.1M 3-(n-morpholino)-propanesulphonic acid buffer (MOPS), pH 7.0, is added to the gel within 10 minutes of the water wash. The column is capped, contents mixed to form a uniform suspension, and incubated at 4° C. for 4 hour on a rotator. […]
Affinity columns are prepared by adding 1 ml of agarose gel containing immobilized enzyme to 5 ml disposable columns and draining the solvent. […] The fluorescence of all fractions are determined as described below. […]
Aminoglycosides can be detected by fluorescence derivatization using fluorescamine (De Silva et al, Anal. Chem., Vol. 47, 714-718, 1975, herein incorporated by reference). The fluorescence assay has a detection limit of 5 ppm for hygromycin B in citrate. […] The fluorescence is detected using a Perkin Elmer luminescence spectrometer at an excitation of 395 nm and an emission of 485 nm. […]

immobilized lysozyme [3] = target: T1, immobilized lysozyme; assay: affinity chromatography on immobilized lysozyme (agarose gel), fluorescamine detection; format: binding; settings: for binding by the affinity column: solubilized in water; for binding by the immobilized lysozyme: 25 ppm in water, eluted with 10 mM sodium citrate buffer, pH 4.0
Experimental: This example illustrates an affinity chromatography method for the removal of aminoglycosides from biological fluids either for purification of the aminoglycoside or purification of the fluid by removal of aminoglycosides. Lysozyme and α-lactalbumin are immobilized using Affi-Gel 10® (N-hydroxysuccinimide ester agarose gel). A 1 ml aliquot of Affi-Gel 10® is transferred to a 5 ml disposable column, the solvent is drained, and the gel is washed with 3 bed volumes of cold (4° C.) distilled, deionized water. A 2 ml aliquot of lysozyme, 25 mg/ml in 0.1M 3-(n-morpholino)-propanesulphonic acid buffer (MOPS), pH 7.0, is added to the gel within 10 minutes of the water wash. The column is capped, contents mixed to form a uniform suspension, and incubated at 4° C. for 4 hour on a rotator. After incubation, the effluent is collected to determine unbound protein using the BCA® (Bicinchoninic acid, Pierce, Rockford, IL.) method. The remaining active sites on the agarose support are blocked by incubating 1 ml of 0.1M ethylene diamine (in 0.1M MOPS, pH 7.0) with agarose support for 1 hour at 4° C. on a rotator. The gel is washed with MOPS to remove any unbound material (OD280nm =0). α-lactalbumin is solubilized in 0.1M MOPS, 80 mM calcium chloride, pH 7.0 and is immobilized on Affi-Gel® using the same procedure described above for lysozyme.
Affinity columns are prepared by adding 1 ml of agarose gel containing immobilized enzyme to 5 ml disposable columns and draining the solvent. The gel is washed with three bed volumes of cold (4° C.) distilled, deionized water. The immobilized lysozyme is activated by washing the gel with 2 ml of 0.1M NaOH at a flow rate of 1 ml/min followed by 4 bed volumes of cold (4° C.) distilled, deionized water to remove NaOH. […] Aqueous solutions of Hygromycin B, concentrations of 1-100 ppm in distilled deionized water, are applied to the affinity columns and allowed to flow by gravity at approximately 1 ml/min. The flow through was collected to determine the amount of unbound hygromycin B. The columns are washed using four 1.0 ml aliquots of water followed by four 1.0 ml aliquots of 10 mM sodium citrate buffer, pH 4.0. The fluorescence of all fractions are determined as described below. Approximately 29 mg of lysozyme (approximately 53% immobilization efficiency; n=12) and 18 mg of α-lactalbumin (approximately 36% immobilization efficiency; n=7) are immobilized per ml of agarose gel using a 4 hour incubation time.
Aminoglycosides can be detected by fluorescence derivatization using fluorescamine (De Silva et al, Anal. Chem., Vol. 47, 714-718, 1975, herein incorporated by reference). The fluorescence assay has a detection limit of 5 ppm for hygromycin B in citrate. […] The affinity column also binds neomycin B, gentamicin, streptomycin, and dihydrostreptomycin. The fluorescence is detected using a Perkin Elmer luminescence spectrometer at an excitation of 395 nm and an emission of 485 nm. In some cases, TLC analysis (Medina et al, IN Residues of Veterinary Drugs in Food, Haagsma et al ED., Proc. EuroResidue II Conference, Veldhoven, The Netherlands, May 3-5, 1993; J. Chromatography, Vol. 663, 127-135, 1995, both herein incorporated by reference) is performed using the eluate from the affinity columns. The solvent is evaporated from the eluates, the samples reconstituted 1:1 using 95% ethanol, and applied to a Whatman LHK-PD silica gel plate with preabsorbant zones (10×10 cm; 9 lanes). The gel plate is developed for approximately 20 minutes with acetone/ethanol/ammonium hydroxide; 1:1:1, dried in a vacuum oven, cooled to room temperature, and dipped for approximately 4 seconds in 0.02% fluorescamine (acetone/hexane; 1:14). The plate is dried, sprayed lightly with 0.2M sodium citrate buffer, pH 3.0-5.0, with optimal signal at approximately pH 4.0, and the fluorescent bands are detected using an ultraviolet light box at a wavelength of 365 nm. […]

lysozyme = lysozyme (Gallus gallus, UniProt P00698); assay: competitive binding assay, spectinomycin-FITC tracer and latex lysozyme-particles (particle concentration fluorescent assay); settings: for displacement or competition for the binding sites (bound spectinomycin-FITC): spectinomycin-FITC 4.9 ng and 2.45 ng
Experimental: This example illustrates the development of an aminoglycoside competitive binding assay using spectinomycin as the test aminoglycoside to confirm the presence of aminoglycosides in aqueous tissue extracts. Lysozyme is immobilized onto latex particles using the following method. Carboxylated latex particles are dispersed by sonication, 10 pulses of 75% duty cycle using power 3. Aliquots of 0.2 ml particles are transferred into 10 ml conical polypropylene tubes. The carboxyls are activated by adding 150 mg N-ethyl-N^3 (3-dimethylaminopropyl)-carbodiimide hydrochloride (EDC) and allowed to stand for approximately 15-20 minutes at approximately room temperature. Two ml of 0.1 mg/ml lysozyme in pH 7, 0.1M phosphate buffer is heated at […] for approximately 30 minutes and then is added to the activated particles drop by drop while mixing gently. The mixture is incubated at 37° C. for approximately 1.5 hours. The derivatized latex (latex-lysozyme) is centrifuged at approximately 8225×g (approximately 10,000 rpm) for approximately 5 minutes at approximately 4° C. The supernatant is assayed for protein content and compared with initial protein concentration using a Biorad protein assay. The latex-lysozyme is washed twice with 2 ml of pH 7 phosphate buffer and centrifuged at approximately 3,000×g for approximately 10 minutes. Four ml of phosphate buffer containing 0.1% sodium azide and 0.015% Brij surfactant is added to the latex lysozyme and the mixture is sonicated with 10 pulses prior to storage at 4° C.
To prepare the label for the assay, spectinomycin base (0.01 mM) and FITC (0.02 mM) are dissolved separately in 0.5 ml of 10 mM dibasic phosphate buffer adjusted to pH 8.8 with 10 mM monobasic phosphate buffer. The mixture is mixed gently for 2 hours at room temperature prior to storage at 4° C. The labeling is carried out in brown vials or in tubes wrapped with aluminum foil to prevent photodegradation of the fluorescent compounds. Dilutions are made such that 20 μl contains approximately 5 ng spectinomycin-FITC. Completion of derivatization is screened by thin layer chromatography using 10 ml of developing solvent, methanol:chloroform:acetone:ammonium hydroxide in a ratio of 3:3:3:1. The reaction mixture is diluted in distilled water, 1:100, and applied in 1 μl quantities to TLC plates and developed for approximately 10 minutes in a 118 ml capacity round glass bottle. The derivatized compound is compared to a 0.1 μM FITC sample. […]
Binding and competition interactions are assessed using lysozyme-particles containing 0.6 pg protein in 10 μl. […] In the 2-step saturation binding assay, the displacement of the bound spectinomycin-FITC is determined by adding unlabeled spectinomycin, 20 μl of 100 ng/ml, after the 30 minute incubation with spectinomycin-FITC. […]

[4] = cited from earlier work

Compound: CN[C@@H]1C[C@H](N)[C@@H](O)[C@H](O[C@H]2O[C@H](CO)[C@H](O)[C@@H]3O[C@@]4(O[C@@H]23)O[C@H]([C@H](N)CO)[C@H](O)[C@H](O)[C@H]4O)[C@H]1O [Hygromycin B]
- binding by immobilized rat albumin (immobilized rat albumin): binding
- binding to immobilized lysozyme (immobilized lysozyme [1]): does not bind
- binding capacity ([2]; immobilized α-lactalbumin): 0.1 mg per ml of affinity gel
- binding by the affinity column (immobilized lysozyme [3]; 10 ppm (5 ml)): completely bound
- binding by the immobilized lysozyme (immobilized lysozyme [3]): completely bound
- binding by the affinity column (immobilized lysozyme [3]; 60 ppm (10 ml)): completely bound
- binding capacity (immobilized lysozyme [3]; immobilized lysozyme): 0.5 mg per ml of affinity gel
- difference in binding capacity, lysozyme vs α-lactalbumin (immobilized lysozyme [3]; per ml of affinity gel): 5 fold

- binding to the lysozyme affinity column (qualitative) (immobilized lysozyme [3]): binds
Compound: CN[C@@H]1[C@H](O[C@H]2[C@H](O[C@H]3[C@H](O)[C@@H](O)[C@H](NC(=N)N)[C@@H](O)[C@@H]3NC(=N)N)O[C@@H](C)[C@]2(O)CO)O[C@@H](CO)[C@H](O)[C@H]1O [dihydrostreptomycin]

Compound: NC[C@@H]1O[C@H](O[C@H]2[C@@H](O)[C@H](O[C@@H]3[C@@H](O)[C@H](N)C[C@H](N)[C@H]3O[C@H]3O[C@H](CN)[C@@H](O)[C@H](O)[C@H]3N)O[C@@H]2CO)[C@H](N)[C@@H](O)[C@@H]1O [neomycin B]
- binding to the lysozyme affinity column (qualitative) (immobilized lysozyme [3]): binds
- binding by the immobilized lysozyme (immobilized lysozyme [3]): completely bound

- displacement or competition for the binding sites (bound spectinomycin-FITC) (lysozyme; 1-step equilibrium assay, 20 ng unlabeled spectinomycin): 34%
- competition of unlabeled drug for the binding sites (lysozyme; 1-step equilibrium assay, dilute spectinomycin-FITC (1.22 ng)): 78%
- displacement or competition for the binding sites (bound spectinomycin-FITC) (lysozyme; 2-step assay, 20 ng unlabeled spectinomycin added): 96%
- displacement of bound spectinomycin-FITC (lysozyme; 2-step assay, dilute spectinomycin-FITC (1.22 ng)): not displaced
Compound: CN[C@@H]1[C@H](O)[C@H](NC)[C@H]2O[C@@]3(O)C(=O)C[C@@H](C)O[C@H]3O[C@@H]2[C@H]1O [spectinomycin]

Compound: [H]/N=C(/N)N[C@H]1[C@H](O)[C@@H](O)[C@H](O[C@@H]2O[C@@H](C)[C@](O)(C=O)[C@H]2O[C@@H]2O[C@@H](CO)[C@H](O)[C@@H](O)[C@@H]2NC)[C@@H](N/C(N)=N\[H])[C@@H]1O [streptomycin]
- binding to the lysozyme affinity column (qualitative) (immobilized lysozyme [3]): binds

Compound: Neomycin
- loss of activity of residues in eggs ([4]; eggs): 25%
- loss of activity of residues in eggs ([4]; frying eggs): little or no loss of activity
- loss of activity of residues in eggs ([4]; soft boiling and hard boiling): little or no loss of activity

Compound: gentamicin
- binding by immobilized α-lactalbumin (qualitative) ([2]; FIG. 4): incomplete binding
- binding to the lysozyme affinity column (qualitative) (immobilized lysozyme [3]): binds
- binding by the immobilized lysozyme (immobilized lysozyme [3]): completely bound
